Literature values in publication PMC9097188, “Design, Synthesis, and Molecular Modeling Studies of a Novel Benzimidazole as an Aromatase Inhibitor” (ACS Omega, 2022).

Molecular target: aromatase
Conditions: 3D-QSAR data set, IC50 converted to pIC50; SI reference list; cited from earlier work
In the case of Clc1cccc([C@@H](c2ccc3[nH]ccc3c2)n2ccnc2)c1 [3R], the “Experimental pIC50” value is listed as 6.527. In the case of Clc1cccc([C@H](c2ccc3[nH]ccc3c2)n2ccnc2)c1 [3S], the “Experimental pIC50” value is listed as 6.527. In the case of N#Cc1ccc([C@H](c2ccc3[nH]ccc3c2)n2ccnc2)cc1 [5R], the “Experimental pIC50” value is given as 7.714. In the case of N#Cc1ccc(C(c2ccc3[nH]ccc3c2)n2ccnc2)cc1 (stereo not drawn) [5S], the “Experimental pIC50” value is listed as 7.714. In the case of CCn1c([C@@H](c2cccc(Cl)c2)n2ccnc2)c(C)c2cc(Br)ccc21 [69R], the “Experimental pIC50” value is listed as 6.027. In the case of CCn1c([C@H](c2cccc(Cl)c2)n2ccnc2)c(C)c2cc(Br)ccc21 [69S], the “Experimental pIC50” value is listed as 6.027. In the case of CCn1c([C@@H](c2ccc(F)cc2)n2ccnc2)c(C)c2ccccc21 [73R], the “Experimental pIC50” value is given as 6.921. In the case of CCn1c([C@H](c2ccc(F)cc2)n2ccnc2)c(C)c2ccccc21 [73S], the “Experimental pIC50” value is given as 6.921. In the case of CCn1cc([C@@H](c2ccc(F)cc2)n2ccnc2)c2cc(C#N)ccc21 [76R], the “Experimental pIC50” value is listed as 6.495. For CCn1cc([C@H](c2ccc(F)cc2)n2ccnc2)c2cc(C#N)ccc21 [76S], the “Experimental pIC50” value is given as 6.495. For CC(C)n1cc([C@@H](c2ccc(F)cc2)n2ccnc2)c2cc(Br)ccc21 [78R], the “Experimental pIC50” value is listed as 6.495. For CC(C)n1cc([C@H](c2ccc(F)cc2)n2ccnc2)c2cc(Br)ccc21 [78S], the “Experimental pIC50” value is listed as 6.495. In the case of O[C@](c1ccc(Br)cc1)(c1cccnc1)c1cc2ccccc2o1 [85R], the “Experimental pIC50” value is listed as 4.600. In the case of O[C@@](c1ccc(Br)cc1)(c1cccnc1)c1cc2ccccc2o1 [85S], the “Experimental pIC50” value is listed as 4.600. For O[C@@](c1cccnc1)(c1cc2ccccc2o1)c1ccc(Cl)cc1Cl [87R], the “Experimental pIC50” value is listed as 5.658. For O[C@](c1cccnc1)(c1cc2ccccc2o1)c1ccc(Cl)cc1Cl [87S], the “Experimental pIC50” value is given as 5.658. For CCn1cc([C@H](c2ccc(Cl)cc2Cl)n2cccc2)c2cc(Br)ccc21 [118R], the “Experimental pIC50” value is given as 6.478. For CCn1cc([C@@H](c2ccc(Cl)cc2Cl)n2cccc2)c2cc(Br)ccc21 [118S], the “Experimental pIC50” value is given as 6.478. For CCn1cc([C@@H](c2ccc(F)cc2)n2cncn2)c2cc(Br)ccc21 [119R], the “Experimental pIC50” value is listed as 6.016. In the case of CCn1cc([C@H](c2ccc(F)cc2)n2cncn2)c2cc(Br)ccc21 [119S], the “Experimental pIC50” value is listed as 6.016. For CCn1cc([C@H](c2ccc(Cl)cc2Cl)n2cncn2)c2cc(Br)ccc21 [120R], the “Experimental pIC50” value is given as 6.206. For CCn1cc([C@@H](c2ccc(Cl)cc2Cl)n2cncn2)c2cc(Br)ccc21 [120S], the “Experimental pIC50” value is listed as 6.206. For CCn1cc([C@H](c2ccccc2Cl)n2ccnc2)c2cc(Br)ccc21 [121R], the “Experimental pIC50” value is listed as 6.009. In the case of CCn1cc([C@@H](c2ccccc2Cl)n2ccnc2)c2cc(Br)ccc21 [121S], the “Experimental pIC50” value is listed as 6.009. In the case of CCn1cc([C@@H](c2ccc(F)cc2)n2cncn2)c2cc(Br)ccc21 [123R], the “Experimental pIC50” value is listed as 5.149. In the case of CCn1cc(C(c2ccc(F)cc2)n2cncn2)c2cc(Br)ccc21 (stereo not drawn) [123S], the “Experimental pIC50” value is listed as 5.149. In the case of COc1ccc(-n2c(Cn3ccnc3)cc3ccccc32)cc1 [compound 12], the “Experimental pIC50” value is listed as 7.111. For Cc1ccc2cc(Cn3ccnc3)n(-c3ccccc3)c2c1 [compound 15], the “Experimental pIC50” value is listed as 7.670. In the case of COc1ccc(-n2c(Cn3ccnc3)cc3ccc(C)cc32)cc1 [compound 17], the “Experimental pIC50” value is given as 6.858. In the case of Cc1ccc2cc(Cn3ccnc3)n(-c3ccc(C#N)cc3)c2c1 [compound 19], the “Experimental pIC50” value is listed as 7.568. For COc1ccc2cc(Cn3ccnc3)n(-c3ccc(F)cc3)c2c1 [compound 21], the “Experimental pIC50” value is listed as 7.310. For COc1ccc(-n2c(Cn3ccnc3)cc3ccc(Cl)cc32)cc1 [compound 26], the “Experimental pIC50” value is given as 6.692. For Cc1ccc(S(=O)(=O)NCCc2c(C(c3ccccc3)c3[nH]c4ccccc4c3CCNS(=O)(=O)c3ccc(C)cc3)[nH]c3ccccc23)cc1 [compound 29], the “Experimental pIC50” value is listed as 4.924. In the case of O=[N+]([O-])c1ccc(S(=O)(=O)NCCc2c(C(c3ccccc3)c3[nH]c4ccccc4c3CCNS(=O)(=O)c3ccc([N+](=O)[O-])cc3)[nH]c3ccccc23)cc1 [compound 30], the “Experimental pIC50” value is listed as 4.951. In the case of COc1ccc(S(=O)(=O)NCCc2c(C(c3ccccc3)c3[nH]c4ccccc4c3CCNS(=O)(=O)c3ccc(OC)cc3)[nH]c3ccccc23)cc1 [compound 31], the “Experimental pIC50” value is listed as 5.456. For O=[N+]([O-])c1ccc(C(c2[nH]c3ccccc3c2CCNS(=O)(=O)c2ccc(Br)cc2)c2[nH]c3ccccc3c2CCNS(=O)(=O)c2ccc(Br)cc2)cc1 [compound 32], the “Experimental pIC50” value is given as 5.569. In the case of O=[N+]([O-])c1ccc(C(c2[nH]c3ccccc3c2CCNS(=O)(=O)c2ccc(C(F)(F)F)cc2)c2[nH]c3ccccc3c2CCNS(=O)(=O)c2ccc(C(F)(F)F)cc2)cc1 [compound 34], the “Experimental pIC50” value is listed as 5.398. In the case of N#Cc1ccc(C(c2[nH]c3ccccc3c2CCNS(=O)(=O)c2ccc(Cl)cc2)c2[nH]c3ccccc3c2CCNS(=O)(=O)c2ccc(Cl)cc2)cc1 [compound 35], the “Experimental pIC50” value is given as 5.260. For N#Cc1ccc(C(c2[nH]c3ccccc3c2CCNS(=O)(=O)c2ccc(F)cc2)c2[nH]c3ccccc3c2CCNS(=O)(=O)c2ccc(F)cc2)cc1 [compound 36], the “Experimental pIC50” value is listed as 5.009. In the case of N#Cc1ccc(C(c2[nH]c3ccccc3c2CCNS(=O)(=O)c2ccc(C(F)(F)F)cc2)c2[nH]c3ccccc3c2CCNS(=O)(=O)c2ccc(C(F)(F)F)cc2)cc1 [compound 37], the “Experimental pIC50” value is given as 4.815. In the case of O=S(=O)(NCCc1c(C(c2ccc(Br)cc2)c2[nH]c3ccccc3c2CCNS(=O)(=O)c2ccc(Cl)cc2)[nH]c2ccccc12)c1ccc(Cl)cc1 [compound 38], the “Experimental pIC50” value is listed as 5.569. In the case of O=S(=O)(NCCc1c(C(c2ccc(Br)cc2)c2[nH]c3ccccc3c2CCNS(=O)(=O)c2ccc(C(F)(F)F)cc2)[nH]c2ccccc12)c1ccc(C(F)(F)F)cc1 [compound 39], the “Experimental pIC50” value is given as 5.469. For O=S(=O)(NCCc1c(C(c2ccc(F)cc2)c2[nH]c3ccccc3c2CCNS(=O)(=O)c2ccc(Br)cc2)[nH]c2ccccc12)c1ccc(Br)cc1 [compound 40], the “Experimental pIC50” value is given as 5.119. In the case of O=S(=O)(NCCc1c(C(c2ccc(F)cc2)c2[nH]c3ccccc3c2CCNS(=O)(=O)c2ccc(Cl)cc2)[nH]c2ccccc12)c1ccc(Cl)cc1 [compound 41], the “Experimental pIC50” value is listed as 5.268. For O=S(=O)(NCCc1c(C(c2ccc(F)cc2)c2[nH]c3ccccc3c2CCNS(=O)(=O)c2ccc(C(F)(F)F)cc2)[nH]c2ccccc12)c1ccc(C(F)(F)F)cc1 [compound 42], the “Experimental pIC50” value is given as 5.357. In the case of O=S(=O)(NCCc1c(C(c2ccc(C(F)(F)F)cc2)c2[nH]c3ccccc3c2CCNS(=O)(=O)c2ccc(Br)cc2)[nH]c2ccccc12)c1ccc(Br)cc1 [compound 43], the “Experimental pIC50” value is given as 5.420. For O=S(=O)(NCCc1c(C(c2ccc(C(F)(F)F)cc2)c2[nH]c3ccccc3c2CCNS(=O)(=O)c2ccc(Cl)cc2)[nH]c2ccccc12)c1ccc(Cl)cc1 [compound 44], the “Experimental pIC50” value is given as 5.495. For O=S(=O)(NCCc1c(C(c2ccc(C(F)(F)F)cc2)c2[nH]c3ccccc3c2CCNS(=O)(=O)c2ccc(C(F)(F)F)cc2)[nH]c2ccccc12)c1ccc(C(F)(F)F)cc1 [compound 45], the “Experimental pIC50” value is listed as 5.638. For COc1ccc(S(=O)(=O)NCCc2c(C(c3ccc(O)cc3)c3[nH]c4ccccc4c3CCNS(=O)(=O)c3ccc(OC)cc3)[nH]c3ccccc23)cc1 [compound 46], the “Experimental pIC50” value is given as 6.155. For O=S(=O)(NCCc1c(C(c2ccc(O)cc2)c2[nH]c3ccccc3c2CCNS(=O)(=O)c2ccc(Cl)cc2)[nH]c2ccccc12)c1ccc(Cl)cc1 [compound 47], the “Experimental pIC50” value is listed as 5.854. In the case of O=S(=O)(NCCc1c(C(c2ccc(O)cc2)c2[nH]c3ccccc3c2CCNS(=O)(=O)c2ccc(C(F)(F)F)cc2)[nH]c2ccccc12)c1ccc(C(F)(F)F)cc1 [compound 48], the “Experimental pIC50” value is given as 5.886. For O=[N+]([O-])c1ccc(S(=O)(=O)NCCc2c(C(c3ccc(O)cc3)c3[nH]c4ccccc4c3CCNS(=O)(=O)c3ccc([N+](=O)[O-])cc3)[nH]c3ccccc23)cc1 [compound 49], the “Experimental pIC50” value is given as 5.638. For Cc1ccc(S(=O)(=O)NCCc2c(C(c3ccccc3O)c3[nH]c4ccccc4c3CCNS(=O)(=O)c3ccc(C)cc3)[nH]c3ccccc23)cc1 [compound 50], the “Experimental pIC50” value is listed as 5.387. In the case of O=[N+]([O-])c1ccc(S(=O)(=O)NCCc2c(C(c3ccccc3O)c3[nH]c4ccccc4c3CCNS(=O)(=O)c3ccc([N+](=O)[O-])cc3)[nH]c3ccccc23)cc1 [compound 51], the “Experimental pIC50” value is given as 5.553. In the case of COc1ccc(S(=O)(=O)NCCc2c(C(c3ccccc3O)c3[nH]c4ccccc4c3CCNS(=O)(=O)c3ccc(OC)cc3)[nH]c3ccccc23)cc1 [compound 52], the “Experimental pIC50” value is given as 6.097. For O=S(=O)(NCCc1c(C(c2ccccc2O)c2[nH]c3ccccc3c2CCNS(=O)(=O)c2ccc(Cl)cc2)[nH]c2ccccc12)c1ccc(Cl)cc1 [compound 53], the “Experimental pIC50” value is given as 5.377. In the case of O=[N+]([O-])c1cccc(S(=O)(=O)NCCc2c(C(c3ccccc3O)c3[nH]c4ccccc4c3CCNS(=O)(=O)c3cccc([N+](=O)[O-])c3)[nH]c3ccccc23)c1 [compound 54], the “Experimental pIC50” value is given as 5.770. For O=[N+]([O-])c1ccccc1S(=O)(=O)NCCc1c(C(c2ccccc2O)c2[nH]c3ccccc3c2CCNS(=O)(=O)c2ccccc2[N+](=O)[O-])[nH]c2ccccc12 [compound 55], the “Experimental pIC50” value is listed as 5.337. For COc1ccc(S(=O)(=O)NCCc2c(C(c3cc(OC)c(O)c(OC)c3)c3[nH]c4ccccc4c3CCNS(=O)(=O)c3ccc(OC)cc3)[nH]c3ccccc23)cc1 [compound 56], the “Experimental pIC50” value is given as 5.602. For O=S(=O)(NCCc1c(C(c2ccc3c(c2)Cc2ccccc2-3)c2[nH]c3ccccc3c2CCNS(=O)(=O)c2ccc(Cl)cc2)[nH]c2ccccc12)c1ccc(Cl)cc1 [compound 57], the “Experimental pIC50” value is listed as 5.056. In the case of CCn1c2ccccc2c2cc(C(c3[nH]c4ccccc4c3CCNS(=O)(=O)c3ccccc3)c3[nH]c4ccccc4c3CCNS(=O)(=O)c3ccccc3)ccc21 [compound 58], the “Experimental pIC50” value is listed as 5.409. In the case of COc1ccc(S(=O)(=O)NCCc2c(C3(c4[nH]c5ccccc5c4CCNS(=O)(=O)c4ccc(OC)cc4)C(=O)Nc4ccccc43)[nH]c3ccccc23)cc1 [compound 59], the “Experimental pIC50” value is given as 5.553. In the case of O=C1Nc2ccccc2C1(c1[nH]c2ccccc2c1CCNS(=O)(=O)c1ccc(Cl)cc1)c1[nH]c2ccccc2c1CCNS(=O)(=O)c1ccc(Cl)cc1 [compound 60], the “Experimental pIC50” value is given as 5.081.
